One block for each molecule: values may come before it.
Test: Butyric acid release (odor) from lipase washed butter swatches by SPME-GC, Model E1 detergent
Protocol: The butyric acid release (odor) from the lipase washed swatches were measured by Solid Phase Micro Extraction Gas Chromatography (SPME-GC) using the following method.
40 mL of Model E1 detergent wash liquor was added to a 50 mL test tube. CS-10 butter swatches (CFT) were prepared from 5×5 cm swatches as round punch-outs with a 2-cm diameter. The butter swatches were prepared using methods similar to those described in Example 1. Lipase and methyl ricinoleate (Sigma-Aldrich R8750) were added to the tubes according to the table below, followed by the addition of 10 steel balls and 2 CS-10 swatches per tube. The tubes were continuously agitated at 40 rpm for 25 minutes at 20° C. The samples were then rinsed with cold water for 5 min and finally dried on filter paper for 16 hours.
The dried CS-10 swatches were transferred to Gas Chromatograph (GC) vials, which were then sealed. The samples were incubated at 30° C. for 24 hours, heated to 140° C. for 30 minutes, and stored at 20-25° C. for at least 4 hours before analysis. The analyses were performed on a Shimadzu Nexis GC-2030 equipped with a Carboxen PDMS SPME fiber (85 μm). Sampling from each GC vial was performed at 50° C. for 8 minutes with the SPME fiber in the head-space over the textile pieces as the sampled compounds were subsequently injected onto the column (injector temperature=250° C. Column flow=2 mL helium/minute. Column over temperature gradient: 0 minute=50° C., 2 minutes=50° C., 6 minutes 45 seconds=240° C.). Detection was performed using a Flame Ionization Detector (FID). Retention time for butyric acid was identified using an authentic standard. The area of each peak was measured and compared to the area of the reference peak (Lipase 2, no methyl ricinoleate). The data presents the peak sizes as the % peak size relative to the corresponding peak size from the Lipase 2 alone wash conditions. The experiment was performed twice. The Coefficient of Variation (CV) was 5%.

- Butyric acid peak size normalized to lipase alone (%) (methyl ricinoleate 1 mM, with Lipase 2, 25 minutes at 20° C.): 88%
- Butyric acid peak size normalized to lipase alone (%) (methyl ricinoleate 1 mM, without Lipase 2, 25 minutes at 20° C.): 0%
- Butyric acid peak size normalized to lipase alone (%) (methyl ricinoleate 5 mM, with Lipase 2, 25 minutes at 20° C.): 89%
- Butyric acid peak size normalized to lipase alone (%) (methyl ricinoleate 5 mM, without Lipase 2, 25 minutes at 20° C.): 0%
Molecule: CCCCCC[C@@H](O)C/C=C\CCCCCCCC(=O)OC [Methyl ricinoleate, methyl ricinoleate]

- Butyric acid peak size normalized to lipase alone (%) (Lipase 2 alone, no methyl ricinoleate (reference peak), 25 minutes at 20° C.): 100%
B1: Lipase 2: Thermomyces lanuginosus lipase (TLL) SEQ ID NO: 1 with substitutions E1C+D27R+G38A+F51V+D96E+K981+D111A+G163K+H198S+Y220F+T231R+N233C+D254S+P256T (Novozymes A/S) (protein, listed as Thermomyces lanuginosus)
chain: CVSQDLFNQFNLFAQYSAAAYCGKNNRALAGTNITCTANACPEVEKADATVLYSFEDSGVGDVTGFLALDNTNKLIVLSFRGSRSIENWIGNLNFELIEINDICSGCRGHAGFTSSWRSVADTLRQKVEDAVREHPDYRVVFTGHSLGGALATVAGADLRGNKYDIDVFSYGAPRVGNRAFAEFLTVQTGGTLYRITSTNDIVPRLPPREFGYSHSSPEFWIKSGTLVLVRRCDIVKIEGIDATGGNNQPNIPSITAHLWYFGLIGTCL
modifications: mat_peptide (1)..(269)

— patent publication US12529017B2, “Detergent composition comprising a lipase” (Novozymes A/S, priority 2020, dated 2026)
